Columns and labels:
Experiment in all cases: radiometric filter-binding kinase assay
PRKCG (human) = PRKCG (human) (UniProt P05129); conditions: compound 1.0 µM
CSNK2A1 (human) = CSNK2A1 (human) (UniProt P68400)
LCK (mouse) = conditions: compound 1.0 µM; accession and sequence are those of the human protein
MAP3K9 (human) = MAP3K9 (human) (UniProt P80192); conditions: compound 1.0 µM
BRSK2 (human) = BRSK2 (human) (UniProt Q8IWQ3); conditions: compound 1.0 µM
EPHA2 (human) = EPHA2 (human) (UniProt P29317); conditions: compound 1.0 µM
PKN2 (human) = PKN2 (human) (UniProt Q16513); conditions: compound 1.0 µM
ABL1 (human) = ABL1 (human) (UniProt P00519); conditions: compound 1.0 µM
PAK4 (human) = PAK4 (human) (UniProt O96013); conditions: compound 1.0 µM
IKBKB (human) = IKBKB (human) (UniProt O14920); conditions: compound 1.0 µM
[1] = biological target: STK11 CAB39 STRADA (human) (UniProt Q9Y376+Q7RTN6+Q15831); conditions: compound 1.0 µM
TEK (human) = TEK (human) (UniProt Q02763); conditions: compound 1.0 µM
[2] = biological target: PRKAA1 PRKAB2 PRKAG1 (human) (UniProt O43741+Q13131+P54619); conditions: compound 1.0 µM
INSRR (human) = INSRR (human) (UniProt P14616); conditions: compound 1.0 µM
MST4 (human) = MST4 (human) (UniProt Q9P289); conditions: compound 1.0 µM
FGFR1 (human) = FGFR1 (human) (UniProt P11362); conditions: compound 1.0 µM
RIPK2 (human) = RIPK2 (human) (UniProt O43353); conditions: compound 1.0 µM
PAK6 (human) = PAK6 (human) (UniProt Q9NQU5); conditions: compound 1.0 µM
MINK1 (human) = MINK1 (human) (UniProt Q8N4C8); conditions: compound 1.0 µM
MAPK9 (human) = MAPK9 (human) (UniProt P45984); conditions: compound 1.0 µM
PIM2 (human) = PIM2 (human) (UniProt Q9P1W9); conditions: compound 1.0 µM
MAPKAPK3 (human) = MAPKAPK3 (human) (UniProt Q16644); conditions: compound 1.0 µM
PRKCZ (human) = PRKCZ (human) (UniProt Q05513); conditions: compound 1.0 µM
MAP3K11 (human) = MAP3K11 (human) (UniProt Q16584); conditions: compound 1.0 µM
MARK3 (human) = MARK3 (human) (UniProt P27448); conditions: compound 1.0 µM
HIPK3 (human) = HIPK3 (human) (UniProt Q9H422); conditions: compound 1.0 µM
TTK (human) = TTK (human) (UniProt P33981); conditions: compound 1.0 µM
PIM3 (human) = PIM3 (human) (UniProt Q86V86); conditions: compound 1.0 µM
STK3 (human) = STK3 (human) (UniProt Q13188); conditions: compound 1.0 µM
MAPK1 (human) = MAPK1 (human) (UniProt P28482); conditions: compound 1.0 µM
MAP2K1 (human) = MAP2K1 (human) (UniProt Q02750); conditions: compound 1.0 µM
CLK2 (human) = CLK2 (human) (UniProt P49760); conditions: compound 1.0 µM
FLT1 (human) = FLT1 (human) (UniProt P17948); conditions: compound 1.0 µM
DYRK3 (human) = DYRK3 (human) (UniProt O43781); conditions: compound 1.0 µM
MAPK12 (human) = MAPK12 (human) (UniProt P53778); conditions: compound 1.0 µM
AURKB (human) = AURKB (human) (UniProt Q96GD4); conditions: compound 1.0 µM
PAK7 (human) = PAK7 (human) (UniProt Q9P286); conditions: compound 1.0 µM
TAOK1 (human) = TAOK1 (human) (UniProt Q7L7X3); conditions: compound 1.0 µM
IGF1R (human) = IGF1R (human) (UniProt P08069); conditions: compound 1.0 µM
HIPK2 (human) = HIPK2 (human) (UniProt Q9H2X6); conditions: compound 1.0 µM
HIPK2 (human), sequence (Q9H2X6 whole entry, looked up): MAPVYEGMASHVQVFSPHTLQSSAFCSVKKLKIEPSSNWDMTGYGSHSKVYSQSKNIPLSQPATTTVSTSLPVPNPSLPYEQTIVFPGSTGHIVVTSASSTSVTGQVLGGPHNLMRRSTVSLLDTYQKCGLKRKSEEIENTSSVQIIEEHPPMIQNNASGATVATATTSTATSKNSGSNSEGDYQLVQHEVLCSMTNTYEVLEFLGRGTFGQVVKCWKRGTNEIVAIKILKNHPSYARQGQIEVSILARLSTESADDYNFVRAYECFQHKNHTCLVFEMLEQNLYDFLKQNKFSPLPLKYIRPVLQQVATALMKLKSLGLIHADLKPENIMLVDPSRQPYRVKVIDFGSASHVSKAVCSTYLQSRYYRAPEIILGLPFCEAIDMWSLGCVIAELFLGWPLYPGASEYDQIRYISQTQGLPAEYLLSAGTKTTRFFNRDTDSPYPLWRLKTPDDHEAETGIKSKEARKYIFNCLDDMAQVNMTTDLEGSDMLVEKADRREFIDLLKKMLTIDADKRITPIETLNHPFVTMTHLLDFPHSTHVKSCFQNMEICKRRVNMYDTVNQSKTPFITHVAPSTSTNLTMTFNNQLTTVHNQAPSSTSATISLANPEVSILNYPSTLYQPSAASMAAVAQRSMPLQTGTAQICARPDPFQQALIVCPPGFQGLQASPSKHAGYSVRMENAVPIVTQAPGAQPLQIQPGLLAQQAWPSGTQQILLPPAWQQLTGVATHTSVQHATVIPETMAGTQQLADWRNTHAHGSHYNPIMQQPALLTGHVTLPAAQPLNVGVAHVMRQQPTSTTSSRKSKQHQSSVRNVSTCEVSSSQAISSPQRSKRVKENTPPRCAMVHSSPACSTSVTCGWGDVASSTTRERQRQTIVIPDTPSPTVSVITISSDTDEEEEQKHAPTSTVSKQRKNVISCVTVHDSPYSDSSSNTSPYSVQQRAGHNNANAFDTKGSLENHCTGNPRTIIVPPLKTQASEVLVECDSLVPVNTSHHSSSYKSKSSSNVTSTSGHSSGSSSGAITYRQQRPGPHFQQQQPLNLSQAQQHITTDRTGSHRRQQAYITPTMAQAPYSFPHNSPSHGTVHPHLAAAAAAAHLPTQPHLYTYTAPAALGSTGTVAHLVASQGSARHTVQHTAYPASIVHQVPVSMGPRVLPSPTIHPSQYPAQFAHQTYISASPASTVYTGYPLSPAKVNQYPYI

CSNK2A1 (human), sequence (P68400 whole entry, looked up): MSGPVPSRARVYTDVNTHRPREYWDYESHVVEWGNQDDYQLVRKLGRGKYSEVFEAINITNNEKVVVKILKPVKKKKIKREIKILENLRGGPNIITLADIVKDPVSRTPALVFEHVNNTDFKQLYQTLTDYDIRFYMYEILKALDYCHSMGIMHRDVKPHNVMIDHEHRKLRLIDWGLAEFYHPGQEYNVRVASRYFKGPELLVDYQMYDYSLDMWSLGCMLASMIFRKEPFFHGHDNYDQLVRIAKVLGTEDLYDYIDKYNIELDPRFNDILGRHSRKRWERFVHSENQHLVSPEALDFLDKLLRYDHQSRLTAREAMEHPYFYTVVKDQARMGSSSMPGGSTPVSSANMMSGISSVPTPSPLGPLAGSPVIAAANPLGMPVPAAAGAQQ
MAP3K9 (human), sequence (P80192 whole entry, looked up): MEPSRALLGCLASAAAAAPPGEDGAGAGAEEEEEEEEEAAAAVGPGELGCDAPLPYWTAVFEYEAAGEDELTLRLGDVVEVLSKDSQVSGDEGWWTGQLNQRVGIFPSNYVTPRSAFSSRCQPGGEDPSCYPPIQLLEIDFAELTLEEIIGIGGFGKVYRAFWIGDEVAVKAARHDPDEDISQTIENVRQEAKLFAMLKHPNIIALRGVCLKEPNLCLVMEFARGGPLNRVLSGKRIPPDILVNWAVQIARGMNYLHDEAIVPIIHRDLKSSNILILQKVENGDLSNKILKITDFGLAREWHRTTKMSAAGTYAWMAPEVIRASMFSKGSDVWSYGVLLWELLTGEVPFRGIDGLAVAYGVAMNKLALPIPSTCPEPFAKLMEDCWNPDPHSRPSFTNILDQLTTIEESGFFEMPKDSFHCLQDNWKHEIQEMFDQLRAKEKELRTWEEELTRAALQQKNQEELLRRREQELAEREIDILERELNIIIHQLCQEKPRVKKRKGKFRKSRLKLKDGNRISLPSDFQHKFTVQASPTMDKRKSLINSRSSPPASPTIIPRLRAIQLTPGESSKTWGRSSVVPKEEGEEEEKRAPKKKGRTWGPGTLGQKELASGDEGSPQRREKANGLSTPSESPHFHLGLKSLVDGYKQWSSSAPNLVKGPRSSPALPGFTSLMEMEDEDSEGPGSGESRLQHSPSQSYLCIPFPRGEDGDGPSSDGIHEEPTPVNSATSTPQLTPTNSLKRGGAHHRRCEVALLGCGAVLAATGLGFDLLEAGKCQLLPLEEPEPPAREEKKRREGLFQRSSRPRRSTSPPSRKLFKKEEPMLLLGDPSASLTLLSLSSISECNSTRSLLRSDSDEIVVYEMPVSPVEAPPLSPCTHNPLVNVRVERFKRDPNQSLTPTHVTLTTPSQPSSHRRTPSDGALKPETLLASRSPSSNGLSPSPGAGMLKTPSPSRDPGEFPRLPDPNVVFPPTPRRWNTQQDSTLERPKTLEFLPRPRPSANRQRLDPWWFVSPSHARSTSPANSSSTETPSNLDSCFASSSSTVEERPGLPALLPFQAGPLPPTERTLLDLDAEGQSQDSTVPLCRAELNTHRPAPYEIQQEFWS
MAPK9 (human), sequence (P45984 whole entry, looked up): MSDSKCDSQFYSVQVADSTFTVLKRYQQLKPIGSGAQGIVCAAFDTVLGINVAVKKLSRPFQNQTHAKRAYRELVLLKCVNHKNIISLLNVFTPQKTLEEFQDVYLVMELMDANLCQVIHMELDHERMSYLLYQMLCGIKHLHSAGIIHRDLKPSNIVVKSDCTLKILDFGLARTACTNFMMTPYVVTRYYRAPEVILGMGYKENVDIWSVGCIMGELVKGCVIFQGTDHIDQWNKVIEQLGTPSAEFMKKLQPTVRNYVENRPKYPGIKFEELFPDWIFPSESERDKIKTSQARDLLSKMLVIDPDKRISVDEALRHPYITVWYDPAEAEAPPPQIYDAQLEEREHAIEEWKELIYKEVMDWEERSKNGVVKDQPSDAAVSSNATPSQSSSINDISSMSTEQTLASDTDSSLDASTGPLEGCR
PRKCZ (human), sequence (Q05513 whole entry, looked up): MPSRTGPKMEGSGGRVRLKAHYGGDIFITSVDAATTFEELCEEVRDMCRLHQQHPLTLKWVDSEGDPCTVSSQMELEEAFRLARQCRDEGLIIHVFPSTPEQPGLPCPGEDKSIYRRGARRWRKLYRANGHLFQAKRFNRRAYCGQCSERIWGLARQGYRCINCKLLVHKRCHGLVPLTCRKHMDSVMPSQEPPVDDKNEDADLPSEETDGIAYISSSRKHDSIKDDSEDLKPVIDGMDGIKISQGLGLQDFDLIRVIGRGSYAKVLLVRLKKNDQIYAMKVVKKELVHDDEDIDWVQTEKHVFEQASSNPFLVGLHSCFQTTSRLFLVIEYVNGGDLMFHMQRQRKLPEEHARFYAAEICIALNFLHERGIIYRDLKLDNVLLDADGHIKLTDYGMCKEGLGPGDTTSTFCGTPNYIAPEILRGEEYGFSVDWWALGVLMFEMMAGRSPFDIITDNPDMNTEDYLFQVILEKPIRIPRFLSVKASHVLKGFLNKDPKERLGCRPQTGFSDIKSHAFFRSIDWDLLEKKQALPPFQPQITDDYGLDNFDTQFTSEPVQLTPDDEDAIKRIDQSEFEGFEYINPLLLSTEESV
STK3 (human), sequence (Q13188 whole entry, looked up): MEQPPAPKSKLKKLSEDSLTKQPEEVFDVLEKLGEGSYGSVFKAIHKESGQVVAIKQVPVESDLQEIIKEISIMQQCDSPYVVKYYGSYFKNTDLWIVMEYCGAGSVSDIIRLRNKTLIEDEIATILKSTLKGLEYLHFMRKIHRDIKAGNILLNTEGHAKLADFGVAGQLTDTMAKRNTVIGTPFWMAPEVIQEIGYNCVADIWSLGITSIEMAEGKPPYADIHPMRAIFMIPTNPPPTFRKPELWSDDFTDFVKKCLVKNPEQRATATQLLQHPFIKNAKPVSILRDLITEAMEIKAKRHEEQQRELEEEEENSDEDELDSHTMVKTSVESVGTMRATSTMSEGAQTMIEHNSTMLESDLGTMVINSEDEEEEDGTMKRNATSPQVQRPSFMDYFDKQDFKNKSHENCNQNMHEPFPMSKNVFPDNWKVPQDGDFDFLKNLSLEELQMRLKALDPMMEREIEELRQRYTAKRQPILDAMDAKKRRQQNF
MAP2K1 (human), sequence (Q02750 whole entry, looked up): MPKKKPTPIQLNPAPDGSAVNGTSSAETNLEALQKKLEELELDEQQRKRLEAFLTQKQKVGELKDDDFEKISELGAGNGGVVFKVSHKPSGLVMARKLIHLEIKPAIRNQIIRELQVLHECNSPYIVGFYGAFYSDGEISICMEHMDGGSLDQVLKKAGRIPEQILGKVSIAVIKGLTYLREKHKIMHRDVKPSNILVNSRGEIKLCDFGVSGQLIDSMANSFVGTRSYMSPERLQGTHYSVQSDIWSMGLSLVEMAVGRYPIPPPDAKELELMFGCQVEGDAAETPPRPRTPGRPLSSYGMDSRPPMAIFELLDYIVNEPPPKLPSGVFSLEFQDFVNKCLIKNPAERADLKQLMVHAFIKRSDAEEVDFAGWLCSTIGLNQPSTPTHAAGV
MAPKAPK3 (human), sequence (Q16644 whole entry, looked up): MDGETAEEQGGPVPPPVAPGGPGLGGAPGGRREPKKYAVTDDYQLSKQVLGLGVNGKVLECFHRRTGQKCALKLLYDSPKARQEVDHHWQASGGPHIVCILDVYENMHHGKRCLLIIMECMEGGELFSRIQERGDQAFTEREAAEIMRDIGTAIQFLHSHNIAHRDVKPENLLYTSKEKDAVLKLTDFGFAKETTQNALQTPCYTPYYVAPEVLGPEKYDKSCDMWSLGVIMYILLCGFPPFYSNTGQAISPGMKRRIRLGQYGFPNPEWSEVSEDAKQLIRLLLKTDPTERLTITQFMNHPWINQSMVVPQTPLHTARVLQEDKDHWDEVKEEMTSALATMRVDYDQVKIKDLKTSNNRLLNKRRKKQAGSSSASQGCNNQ

SMILES: Oc1ccc2c(c1)oc1c3ccccc3c(O)cc21
- residual activity (PRKCG (human)): 97%
- IC50 (CSNK2A1 (human)): 4 µM
- residual activity (CSNK2A1 (human); compound 1.0 µM): 87%
- residual activity (LCK (mouse)): 92%
- residual activity (MAP3K9 (human)): 87%
- residual activity (BRSK2 (human)): 66%
- residual activity (EPHA2 (human)): 84%
- residual activity (PKN2 (human)): 35%
- residual activity (ABL1 (human)): 83%
- residual activity (PAK4 (human)): 75%
- residual activity (IKBKB (human)): 85%
- residual activity [1]: 71%
- residual activity (TEK (human)): 112%
- residual activity [2]: 91%
- residual activity (INSRR (human)): 24%
- residual activity (MST4 (human)): 86%
- residual activity (FGFR1 (human)): 77%
- residual activity (RIPK2 (human)): 107%
- residual activity (PAK6 (human)): 121%
- residual activity (MINK1 (human)): 87%
- residual activity (MAPK9 (human)): 102%
- residual activity (PIM2 (human)): 40%
- residual activity (MAPKAPK3 (human)): 84%
- residual activity (PRKCZ (human)): 70%
- residual activity (MAP3K11 (human)): 76%
- residual activity (MARK3 (human)): 80%
- residual activity (HIPK3 (human)): 63%
- residual activity (TTK (human)): 63%
- residual activity (PIM3 (human)): 17%
- residual activity (STK3 (human)): 64%
- residual activity (MAPK1 (human)): 106%
- residual activity (MAP2K1 (human)): 94%
- residual activity (CLK2 (human)): 8%
- residual activity (FLT1 (human)): 40%
- residual activity (DYRK3 (human)): 17%
- residual activity (MAPK12 (human)): 82%
- residual activity (AURKB (human)): 81%
- residual activity (PAK7 (human)): 94%
- residual activity (TAOK1 (human)): 99%
- residual activity (IGF1R (human)): 78%
- residual activity (HIPK2 (human)): 17%
